Data: patent US7956047B2, “Use of chondroitin sulphate E (CS-E) for the treatment of diseases or conditions related to collagen fibril formation” (AnaMar AB, priority 2004, dated 2011)
Entries after “also recorded” stand apart in the source; their conditions may differ.

What was measured:
[1] = test system: collagen fibril formation (collagen monomers, collagen type I / collagen type II); test: In vitro collagen fibrillogenesis assay (turbidity / light scattering); assay type: biochemical, bovine; conditions: for effect on collagen fibril formation (CFF): purified free CS chains added to collagen monomers (330 nM), pH 7.4, FIG. 2 panel A
Experimental: Bovine pepsin-extracted collagen type I was purchased from Vitrogen. Collagen II was pepsin extracted from bovine tracheal cartilage, as previously described (Vogel, K. G., Paulsson, M., and Heinegård, D. (1984) Biochem. J. 223, 587-597). The fibrillogenesis assay has been previously described (Hedborn, E. and Heinegård, D. (1989) J. Biol. Chem. 264, 6898-6905).
Briefly, a solution of collagen monomers (330 nM) was brought to neutral pH by addition of an appropriate volume of 0.012M NaOH, and buffered by 20 mM HEPES, 150 mM NaCl at pH 7.4. Perlecan fragment was added at concentrations equimolar to that of collagen or at one tenth the molar concentration of collagen. The sample was mixed vigorously and briefly, and transferred to a cuvette. The sample was incubated at 37° C. (collagen type I) or 35° C. (collagen type II) in water-jacketed cuvettes in the spectrophotometer, and the absorbance due to light scattering at 400 nm (collagen type I) or 313 nm (collagen type II) was monitored over a duration of 5-18 hrs. The increased absorbance/turbidity depends on increasing fibre formation.
Fibrillogenesis was performed as described above. CS-E from squid was purchased from Calbiochem. 0.13 μg/ml corresponding to the molar concentration of GAG chains in previous experiments using recombinant perlecan domain I variants with HS/CS (PG IB) (33 nM).

[2] = test system: collagen monomers; conditions: literature / manuscript of the applicant's laboratory; cited from earlier work

chondroitin-6 sulphate [CS-6, reference compound]
effect on collagen fibril formation (CFF) [1]: none of the other CS variants had any significant effect; also recorded: none of the other tested chondroitin sulphate variants (CS-D and CS-6) gives a positive result; also recorded: neither CS-6 nor CS-D had any effect

chondroitin sulphate E [CS-E]
concentration at which the stimulatory effect on fibril formation reaches saturation ([1]; FIG. 2 panel B): 30 µg/mL
dose dependence of the stimulatory effect on collagen fibril formation ([1]; FIG. 2 panel B): dose-dependent
effect on collagen fibril formation (CFF) [1]: effective in collagen fibril formation; also recorded: positive result on collagen fibril formation; also recorded: dramatic effects on fibril formation

cartilage oligomeric matrix protein [COMP]
effect on formation of collagen fibres from monomers in vitro [2]: accelerates the formation of fibres from monomers

B1: fibromodulin (protein, UniProt Q06828 19-376, looked up)
Fibromodulin: QYEDDPHWWFHYLRSQQSTYYDPYDPYPYETYEPYPYGVDEGPAYTYGSPSPPDPRDCPQECDCPPNFPTAMYCDNRNLKYLPFVPSRMKYVYFQNNQITSIQEGVFDNATGLLWIALHGNQITSDKVGRKVFSKLRHLERLYLDHNNLTRMPGPLPRSLRELHLDHNQISRVPNNALEGLENLTALYLQHNEIQEVGSSMRGLRSLILLDLSYNHLRKVPDGLPSALEQLYMEHNNVYTVPDSYFRGAPKLLYVRLSHNSLTNNGLASNTFNSSSLLELDLSYNQLQKIPPVNTNLENLYLQGNRINEFSISSFCTVVDVVNFSKLQVLRLDGNEIKRSAMPADAPLCLRLASLIEI
effect on formation of collagen fibres from monomers in vitro [2]: slow down fibre formation in vitro

B2: decorin (protein, UniProt P07585 31-359, looked up)
Decorin: DEASGIGPEVPDDRDFEPSLGPVCPFRCQCHLRVVQCSDLGLDKVPKDLPPDTTLLDLQNNKITEIKDGDFKNLKNLHALILVNNKISKVSPGAFTPLVKLERLYLSKNQLKELPEKMPKTLQELRAHENEITKVRKVTFNGLNQMIVIELGTNPLKSSGIENGAFQGMKKLSYIRIADTNITSIPQGLPPSLTELHLDGNKISRVDAASLKGLNNLAKLGLSFNSISAVDNGSLANTPHLRELHLDNNKLTRVPGGLAEHKYIQVVYLHNNNISVVGSSDFCPPGHNTKKASYSGVSLFSNPVQYWEIQPSTFRCVYVRSAIQLGNYK
effect on formation of collagen fibres from monomers in vitro [2]: slow down fibre formation in vitro
